From patent US20030004175A1, “1,3-oxathiolane nucleoside analogues” (BioChem Pharma Inc., priority 1990, published 2003)
≈ marks a conversion by molar mass, not a printed value.

Key:
HIV-1 strain RF [1] = experiment: Antiviral activity by inhibition of formazan conversion, MT-4 cells infected with HIV-1 RF; assay type: cell-based; details: Human immunodeficiency virus 1, MT4, Formazan assay, read-out: 50% Antiviral Activity
Experimental: (§1) Antiviral activity of the compounds of Example 2 were determined against three strains of HIV-1 and one strain of HIV-2 in the following cell lines.
(§2) MT-4 cells, a human T-cell leukaemia cell line, infected with HIV-1 strain RF.
(§3) Antiviral activities in C8166, JM, and CEM cells were determined by inhibition of syncytium formation (Tochikura et al Virology, 164, 542-546) and in MT-4 cells by inhibition of formazan conversion (Baba et al; (1987) Biochem Biophys Res Commun., 142, 128-134; Mossman (1983) J. Immun Meth; 65, 55-57). Antiviral activities were also determined by analysing the amount of HIV p24 antigen synthesised in the presence and absence of enantiomers.

HIV-2 strain ROD = experiment: Antiviral activity by inhibition of syncytium formation, CEM cells infected with HIV-2 ROD; assay type: cell-based; details: Human immunodeficiency virus 2, CCRF-CEM, read-out: 50% Antiviral Activity
Experimental: as §1
(§4) CEM cells, a human T-lymphoblastoid cell line, infected with HIV-1 strains RF and U455, or HIV-2 strain ROD.
as §3

HIV-1 strain RF [2] = experiment: Antiviral activity by inhibition of syncytium formation, CEM cells infected with HIV-1 RF; assay type: cell-based; details: Human immunodeficiency virus 1, CCRF-CEM, read-out: 50% Antiviral Activity
Experimental: as §1, §4, §3

HIV-1 strain U455 = experiment: Antiviral activity by inhibition of syncytium formation, CEM cells infected with HIV-1 U455; assay type: cell-based; details: Human immunodeficiency virus 1, CCRF-CEM, read-out: 50% Antiviral Activity
Experimental: as §1, §4, §3

HIV-1 strain GB8 [3] = experiment: Antiviral activity by inhibition of syncytium formation, JM cells infected with HIV-1 GB8; assay type: cell-based; details: Human immunodeficiency virus 1, read-out: 50% Antiviral Activity
Experimental: as §1
(§5) JM cells, a semi-mature T-cell line derived from a patient with lymphoblastic leukaemia, infected with HIV-1 strain GB8.
as §3

HIV-1 strain RF [4] = experiment: Antiviral activity by inhibition of syncytium formation, C8166 cells infected with HIV-1 RF; assay type: cell-based; details: Human immunodeficiency virus 1, read-out: 50% Antiviral Activity
Experimental: as §1
(§6) C8166 cells, a human T-lymphoblastoid cell line, infected with HIV-1 strain RF.
as §3

HIV-1 strain RF [5] = experiment: Inhibition of HIV p24 antigen synthesis, C8166 cells, strain RF; assay type: cell-based; details: Human immunodeficiency virus 1, read-out: 50% Inhibition HIV p24 Synthesis
Experimental: as §1, §6, §3

HIV-1 strain GB8 [6] = experiment: Inhibition of HIV p24 antigen synthesis, JM cells, strain GB8; assay type: cell-based; details: Human immunodeficiency virus 1, read-out: 50% Inhibition HIV p24 Synthesis
Experimental: as §1, §5, §3

HIV-1 strain RF [7] = experiment: Inhibition of HIV p24 antigen synthesis, MT-4 cells, strain RF; assay type: cell-based; details: Human immunodeficiency virus 1, MT4, read-out: 50% Inhibition HIV p24 Synthesis
Experimental: as §1, §2, §3

CEM cells = experiment: Cytotoxicity, viable cell count by trypan blue exclusion, CEM cells; assay type: cell-based, human; details: 5 days at 37° C.
Experimental: (§7) The cytotoxicites of the compounds of Example 2, the racemic compound (BCH-189; […] H9, JM, CEM, C8166 and U937. […] After incubation at 37° C. for 5 days, the viable cell count was determined by removing a sample of cell suspension and counting trypan blue excluding cells in a haemocytometer.

JM cells = experiment: Cytotoxicity, viable cell count by trypan blue exclusion, JM cells; assay type: cell-based; details: 5 days at 37° C.
Experimental: as §7

H9 cells = experiment: Cytotoxicity, viable cell count by trypan blue exclusion, H9 cells; assay type: cell-based; details: 5 days at 37° C.
Experimental: as §7

U937 cells = experiment: Cytotoxicity, viable cell count by trypan blue exclusion, U937 cells; assay type: cell-based; details: 5 days at 37° C.
Experimental: as §7

C8166 cells = experiment: Cytotoxicity, viable cell count by trypan blue exclusion, C8166 cells; assay type: cell-based, human; details: 5 days at 37° C.
Experimental: as §7

CD4 cell lines = experiment: Cytotoxicity (summary statement); assay type: cell-based
Experimental: Compounds for test were serially diluted from 100 μg/ml to 0.3 μg/ml (final concentrations) in 96 well microtitre plates. 3.6×10^4 cells were inoculated into each well of the plates including drug-free controls. After incubation at 37° C. for 5 days, the viable cell count was determined by removing a sample of cell suspension and counting trypan blue excluding cells in a haemocytometer.

Row | SMILES | IC50 (HIV-1 strain RF [1]) [µg/mL] | IC50 (HIV-2 strain ROD) [µg/mL] | IC50 (HIV-1 strain RF [2]) [µg/mL] | IC50 (HIV-1 strain U455) [µg/mL] | IC50 (HIV-1 strain GB8 [3]) [µg/mL] | IC50 (HIV-1 strain RF [4]) [µg/mL] | IC50 (HIV-1 strain RF [5]) [µg/mL] | IC50 (HIV-1 strain GB8 [6]) [µg/mL] | IC50 (HIV-1 strain RF [7]) [µg/mL] | 50% Cytoxicity (CEM cells) [µg/mL] | 50% Cytoxicity (JM cells) [µg/mL] | 50% Cytoxicity (H9 cells) [µg/mL] | 50% Cytoxicity (U937 cells) [µg/mL] | 50% Cytoxicity (C8166 cells) [µg/mL] | cytotoxicity compared with the other enantiomer (CD4 cell lines)
1 | Nc1ccn([C@@H]2CS[C@H](CO)O2)c(=O)n1 [(−)-enantiomer, (−)-cis-4-Amino-1-(2-hydroxymethyl-1,3-oxathiolan-5-yl)-(1H)-pyrimidin-2-one] | 0.2 (≈ 0.872 µM) | 0.055 (≈ 0.24 µM) | 0.04 (≈ 0.174 µM) | 0.008 (≈ 0.0349 µM) | 0.05 (≈ 0.218 µM) | 0.01 (≈ 0.0436 µM) | 0.016 (≈ 0.0698 µM) | 0.016 (≈ 0.0698 µM) | 0.0004 (≈ 0.00174 µM) | >100 | 30 | >100 | >100 | >100 | considerably lower cytotoxicity
2 | Nc1ccn([C@@H]2CS[C@H](CO)O2)c(=O)n1 (racemic) [BCH-189, (±)-(cis)-4-Amino-1-(2-hydroxymethyl-1,3-oxathiolan-5-yl)-(1H)-pyrimidin-2-one] | – | – | – | – | – | – | – | – | – | 3 | 3.5 | 8 | 15 | 90 | –
3 | Nc1ccn([C@H]2CS[C@@H](CO)O2)c(=O)n1 [(+)-enantiomer, (2S,cis)-4-amino-1-(2-hydroxymethyl-1,3-oxathiolan-5-yl)-(1H)-pyrimidin-2-one] | 0.28 (≈ 1.22 µM) | 0.045 (≈ 0.196 µM) | 0.07 (≈ 0.305 µM) | 0.006 (≈ 0.0262 µM) | 0.03 (≈ 0.131 µM) | 0.05 (≈ 0.218 µM) | 0.021 (≈ 0.0916 µM) | 0.033 (≈ 0.144 µM) | 0.0008 (≈ 0.00349 µM) | 1 | 1.5 | 2 | 4 | 35 | –
